Source: patent US9114177B2, “Block copolymer having phenylboronic acid group introduced therein, and use thereof” (THE UNIVERSITY OF TOKYO, priority 2011, dated 2015)

Experiments:
[1] = cited from earlier work
[2] = Blood retention properties of complex; format: in vivo; settings: mice, tail vein, 20 μg siRNA
Procedure: The block copolymer (PEG-PLL 12-23/43) and Cy5-GL3-siRNA were added to a 10 mM HEPES buffer (pH 7.3) so as to achieve an N/P ratio of 8 and an siRNA concentration of 7.5 μM, and the resultant was mixed and left to stand still for about 1 to 2 hours at room temperature to prepare a complex solution. The complex solution or a solution of the siRNA (10 mM HEPES buffer) was administered to the tail veins of mice (female Balb/C nude, 6-week-old, N=4) so that the dose was 20 μg of the siRNA, and the amount of the siRNA remaining in blood was determined over time.

[3] = siRNA diffusion time of block copolymer/siRNA complexes in serum solution (complex stability); format: physicochemical; settings: siRNA not mixed with block copolymer, 50 nM, serum solution (10% FBS)
Procedure: A variety of block copolymers having different amino acid polymerization degrees and FPBA group contents were prepared as mentioned in Sections (1-i) to (1-iii) and (2-i) to (2-iii). It should be noted that PEG having a molecular weight (Mw) of 12,000 was used as methoxy-PEG-NH2. The block copolymers were mixed with siRNA fluorescently labeled with Cy3 so as to achieve an N/P ratio of 8. The resultant mixtures were left to stand still in a refrigerator for 1 to 2 hours and diluted with a serum solution (150 mM NaCl, 10 mM Hepes, 10% FBS) so as to achieve an siRNA concentration of 50 nM. The resultant diluted solutions were left to stand still at room temperature for about 1 hour, and the siRNA diffusion time was measured with a confocal laser scanning microscope (manufactured by Carl Zeiss, product name “LSM510”) (10 sec×10 times). It should be noted that, when the measurement was carried out in the same manner as above except that siRNA was not mixed with the block copolymer, the diffusion time (diffusion time of siRNA alone) was 157.5 μsec. It should be noted that GL3-siRNA was used as the siRNA.

| Compound | pKa [1] | siRNA remaining in blood at 10 minutes after administration [2] | siRNA remaining in blood at 1 hour after administration [2] | diffusion time of siRNA alone [3] |
| --- | --- | --- | --- | --- |
| OB(O)c1ccccc1 [phenylboronic acid] | 8 to 9 |  |  |  |
| GL3-siRNA: siRNA for firefly luciferase, SEQ ID NO: 5 and 6, fluorescently labelled (Cy3 or Cy5), tested alone (chain 1 CUUACGCUGACUACUUCGAUU; chain 2 UCGAAGUACUCAGCGUAAGUU; sense strand 5' end labeled with Cy3 (or Cy5), further chemistry not given here) |  | about 10% | almost no siRNA remained | 157.5 μsec |
